Experimental data from US20060069132A1, “Azolecarboxamide herbicides” (priority 2004, published 2006).
Where two headings read alike, the source gives them in different places.

Legend:
[1] = tested on: cocklebur; assay: Test C pre-/postemergence herbicide test; format: in vivo, Xanthium strumarium; conditions: Xanthium strumarium, pre-emergence, 312 h; for pest or weed control at 62 g/ha: 62 g ai/ha, preemergence, scale 0 to 100; for pest or weed control at 62 g/ha / pest or weed control at 125 g/ha / pest or weed control at 250 g/ha: read-out: Plant response rating, Cocklebur; for pest or weed control at 125 g/ha: 125 g ai/ha, scale 0 (no effect) to 100 (complete control), visual, 12 to 14 days; for pest or weed control at 250 g/ha: 250 g ai/ha, scale 0-100; for pest or weed control at 500 g/ha: Preemergence, 500 g ai/ha, scale 0 to 100, 0 no effect, 100 complete control, read-out: Cocklebur plant response rating
Summary of the method: (§1)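 Preemergence: seeds planted and treated with compound in non-phytotoxic solvent with surfactant; postemergence: plants at 2 to 18 cm (1- to 4-leaf stage) sprayed likewise. Kept in greenhouse 12 to 14 days, then visually rated against controls, 0 (no effect) to 100 (complete control).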

[2] = tested on: corn; assay: Test C pre-/postemergence herbicide test; format: in vivo, Zea mays; conditions: Zea mays, pre-emergence, 312 h; for Corn plant response rating (crop injury, 0 = no effect, 100 = complete kill) at 62 g/ha: 62 g ai/ha, preemergence, scale 0 to 100; for Corn plant response rating (crop injury, 0 = no effect, 100 = complete kill) at 125 g/ha: 125 g ai/ha, scale 0 (no effect) to 100 (complete control); for Corn plant response rating (crop injury, 0 = no effect, 100 = complete kill) at 125 g/ha / Corn plant response rating (crop injury, 0 = no effect, 100 = complete kill) at 500 g/ha: visual, 12 to 14 days; for Corn plant response rating (crop injury, 0 = no effect, 100 = complete kill) at 250 g/ha: 250 g ai/ha, scale 0-100; for Corn plant response rating (crop injury, 0 = no effect, 100 = complete kill) at 500 g/ha: 500 g ai/ha, scale 0 to 100 (0 no effect, 100 complete control)
Summary of the method: as §1

[3] = tested on: ducksalad; assay: Test B flooded paddy test; format: in vivo, Heteranthera limosa; conditions: Heteranthera limosa, 336 h, 1000 g ai/ha, scale 0 to 100 (0 no effect, 100 complete control), read-out: Ducksalad plant response rating
Summary of the method: (§2)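 Paddy species grown to the 2-leaf stage under flooding; blackgrass sprayed postemergence at 2–18 cm (1- to 4-leaf stage). Plants kept in a greenhouse for 13 to 15 days, then visually rated against controls on 0 (no effect) to 100 (complete control).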

[4] = tested on: eastern black nightshade; assay: Test C pre-/postemergence herbicide test; format: in vivo, Solanum ptycanthum; conditions: pre-emergence, read-out: Plant response rating, Nightshade; for pest or weed control at 62 g/ha: 62 g ai/ha, preemergence, scale 0 to 100; for pest or weed control at 125 g/ha: 125 g ai/ha, scale 0 (no effect) to 100 (complete control); for pest or weed control at 125 g/ha / pest or weed control at 500 g/ha: visual, 12 to 14 days; for pest or weed control at 250 g/ha: 250 g ai/ha, scale 0-100; for pest or weed control at 500 g/ha: 500 g ai/ha, scale 0 to 100 (0 no effect, 100 complete control)
Summary of the method: as §1

[5] = tested on: smallflower umbrella sedge; assay: Test C flooded paddy test; format: in vivo, Cyperus difformis; conditions: Cyperus difformis; for pest or weed control at 62 g/ha: 62 g ai/ha; for pest or weed control at 125 g/ha: 125 g ai/ha; for pest or weed control at 250 g/ha: 250 g ai/ha, scale of 0 to 100, 0 is no effect, 100 is complete control; for pest or weed control at 500 g/ha: 500 g ai/ha, visual rating after 12 to 14 days, read-out: Plant response rating, Sedge, Umbrella
[6] = tested on: goosegrass; assay: Test C pre-/postemergence herbicide test; format: in vivo, Eleusine indica; conditions: Eleusine indica, pre-emergence, 312 h, read-out: Plant response rating, Goosegrass; for pest or weed control at 62 g/ha: 62 g ai/ha, preemergence, scale 0 to 100; for pest or weed control at 125 g/ha: 125 g ai/ha, scale 0 (no effect) to 100 (complete control); for pest or weed control at 125 g/ha / pest or weed control at 500 g/ha: visual, 12 to 14 days; for pest or weed control at 250 g/ha: 250 g ai/ha, scale 0-100; for pest or weed control at 500 g/ha: 500 g ai/ha, scale 0 to 100 (0 no effect, 100 complete control)
Summary of the method: as §1

[7] = tested on: ducksalad; assay: Test C flooded paddy test; format: in vivo, Heteranthera limosa; conditions: Heteranthera limosa; for pest or weed control at 62 g/ha: 62 g ai/ha; for pest or weed control at 125 g/ha: 125 g ai/ha; for pest or weed control at 250 g/ha: 250 g ai/ha, scale of 0 to 100, 0 is no effect, 100 is complete control; for pest or weed control at 500 g/ha: 500 g ai/ha, visual rating after 12 to 14 days, read-out: Plant response rating, Ducksalad
[8] = tested on: rice; assay: Test B flooded paddy test; format: in vivo, Oryza sativa; conditions: Oryza sativa, 336 h, 1000 g ai/ha, scale 0 to 100 (0 no effect, 100 complete control), read-out: Rice plant response rating
Summary of the method: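 Visual ratings, 0 (no effect) to 100 (complete control), made versus controls after 13–15 d greenhouse. Paddy plants treated at 2-leaf stage; postemergence plants at 1- to 4-leaf stage, 2–18 cm tall.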

[9] = tested on: johnsongrass; assay: Test C pre-/postemergence herbicide test; format: in vivo, Sorghum halepense; conditions: Sorghum halepense, pre-emergence, read-out: Plant response rating, Johnsongrass; for pest or weed control at 62 g/ha: 62 g ai/ha, preemergence, scale 0 to 100; for pest or weed control at 125 g/ha: 125 g ai/ha, scale 0 (no effect) to 100 (complete control); for pest or weed control at 125 g/ha / pest or weed control at 500 g/ha: visual, 12 to 14 days; for pest or weed control at 250 g/ha: 250 g ai/ha, scale 0-100; for pest or weed control at 500 g/ha: 500 g ai/ha, scale 0 to 100 (0 no effect, 100 complete control)
Summary of the method: as §1

[10] = tested on: barnyardgrass; assay: Test B flooded paddy test; format: in vivo, Echinochloa crus-galli; conditions: Echinochloa crus-galli, 336 h, 1000 g ai/ha, scale 0 to 100 (0 no effect, 100 complete control), read-out: Barnyardgrass plant response rating
Summary of the method: as §2

[11] = tested on: lambsquarters; assay: Test C pre-/postemergence herbicide test; format: in vivo, Chenopodium album; conditions: Chenopodium album, pre-emergence, read-out: Plant response rating, Lambsquarters; for pest or weed control at 62 g/ha: 62 g ai/ha, preemergence, scale 0 to 100; for pest or weed control at 125 g/ha: 125 g ai/ha, scale 0 (no effect) to 100 (complete control); for pest or weed control at 125 g/ha / pest or weed control at 500 g/ha: visual, 12 to 14 days; for pest or weed control at 250 g/ha: 250 g ai/ha, scale 0-100; for pest or weed control at 500 g/ha: 500 g ai/ha, scale 0 to 100 (0 no effect, 100 complete control)
Summary of the method: as §1

[12] = tested on: velvetleaf; assay: Test C pre-/postemergence herbicide test; format: in vivo, Abutilon theophrasti; conditions: Abutilon theophrasti, pre-emergence, read-out: Plant response rating, Velvetleaf; for pest or weed control at 62 g/ha: 62 g ai/ha, preemergence, scale 0 to 100; for pest or weed control at 250 g/ha: 250 g ai/ha, scale 0-100; for pest or weed control at 500 g/ha: 500 g ai/ha, scale 0 to 100 (0 no effect, 100 complete control), visual, 12 to 14 days
Summary of the method: as §1

[13] = scale 0 to 100 (0 no effect, 100 complete control), read-out: Sedge, Umbrella plant response rating
[14] = read-out: Sedge, Umbrella plant response rating
[15] = scale 0 to 100 (0 no effect, 100 complete control)
[16] = scale 0 to 100 (0 no effect, 100 complete control), read-out: Ducksalad plant response rating
[17] = read-out: Ducksalad plant response rating

Row | SMILES | pest or weed control at 62 g/ha [1] [%] | pest or weed control at 125 g/ha [1] [%] | pest or weed control at 250 g/ha [1] [%] | pest or weed control at 500 g/ha [1] [%] | Corn plant response rating (crop injury, 0 = no effect, 100 = complete kill) at 62 g/ha [2] [%] | Corn plant response rating (crop injury, 0 = no effect, 100 = complete kill) at 125 g/ha [2] [%] | Corn plant response rating (crop injury, 0 = no effect, 100 = complete kill) at 250 g/ha [2] [%] | Corn plant response rating (crop injury, 0 = no effect, 100 = complete kill) at 500 g/ha [2] [%] | pest or weed control at 62 g/ha [4] [%] | pest or weed control at 125 g/ha [4] [%] | pest or weed control at 250 g/ha [4] [%] | pest or weed control at 500 g/ha [4] [%] | pest or weed control at 125 g/ha [5, 13] [%] | pest or weed control at 250 g/ha [5, 14] [%] | pest or weed control at 500 g/ha [5, 15] [%] | pest or weed control at 62 g/ha [6] [%] | pest or weed control at 125 g/ha [6] [%] | pest or weed control at 250 g/ha [6] [%] | pest or weed control at 500 g/ha [6] [%] | pest or weed control at 125 g/ha [7, 16] [%] | other results
1 | CCc1nn(C(C)(C)C)cc1C(=O)Nc1cc(C(=O)N(C)C)ccc1F [Compound 222, N-[5-[(dimethylamino)carbonyl]-2-fluorophenyl]-1-(1,1-dimethylethyl)-3-ethyl-1H-pyrazole-4-carboxamide] | 0 | 20 | 70 | 100 | 0 | 20 | 60 | 100 | 85 | 100 | 100 | 100 | 75 | 85 | 90 | 80 | 100 | 100 | 100 | 75 | pest or weed control at 1000 g/ha ([3]; visual rating, 13 to 15 days): 80%; pest or weed control at 62 g/ha [5, 13]: 65%; pest or weed control at 62 g/ha [7, 16]: 70%; pest or weed control at 250 g/ha [7, 17]: 85%; pest or weed control at 500 g/ha [7, 15]: 95%; plant injury at 1000 g/ha ([8]; visual rating, 13 to 15 days): 90%; pest or weed control at 62 g/ha [9]: 85%; pest or weed control at 125 g/ha [9]: 100%; pest or weed control at 250 g/ha [9]: 100%; pest or weed control at 500 g/ha [9]: 100%; pest or weed control at 1000 g/ha ([10]; visual rating, 13 to 15 days): 90%; pest or weed control at 62 g/ha [11]: 100%; pest or weed control at 125 g/ha [11]: 100%; pest or weed control at 250 g/ha [11]: 100%; pest or weed control at 500 g/ha [11]: 100%; pest or weed control at 62 g/ha [12]: 50%; pest or weed control at 250 g/ha [12]: 100%; pest or weed control at 500 g/ha [12]: 100%
2 | CCN1N=C(C(C)(C)C)CC1C(=O)Nc1cc(C(=O)N(C)C)ccc1F (stereo not shown) [Compound 268, N-[5-[(dimethylamino)carbonyl]-2-fluorophenyl]-3-(1,1-dimethylethyl)-1-ethyl-4,5-dihydro-1H-pyrazole-5-carboxamide] | 10 | 60 | 70 | 85 | 10 | 45 | 60 | 70 | 100 | 100 | 100 | 100 | 70 | 80 | 95 | 85 | 90 | 100 | 100 | 70 | pest or weed control at 1000 g/ha [3]: 90%; pest or weed control at 62 g/ha ([5]; scale 0 to 100, read-out: Sedge, Umbrella plant response rating): 55%; pest or weed control at 62 g/ha ([7]; scale 0 to 100, read-out: Ducksalad plant response rating): 60%; pest or weed control at 250 g/ha [7, 17]: 85%; pest or weed control at 500 g/ha [7, 15]: 90%; plant injury at 1000 g/ha [8]: 90%; pest or weed control at 62 g/ha [9]: 70%; pest or weed control at 125 g/ha [9]: 90%; pest or weed control at 250 g/ha [9]: 100%; pest or weed control at 500 g/ha [9]: 100%; pest or weed control at 1000 g/ha [10]: 90%; pest or weed control at 62 g/ha [11]: 100%; pest or weed control at 125 g/ha [11]: 100%; pest or weed control at 250 g/ha [11]: 100%; pest or weed control at 500 g/ha [11]: 100%; pest or weed control at 62 g/ha [12]: 60%; pest or weed control at 250 g/ha [12]: 100%; pest or weed control at 500 g/ha [12]: 100%
